In US9115147B2, “Tricyclic derivatives and their pharmaceutical use and compositions” (Cephalon, Inc., priority 2009, dated 2015) one finds Ki data, which are given here for 28 compounds.

The target in the assay is T1, human 5-HT6 receptor (Homo sapiens, UniProt P50406).
T1 construct: host or cells: CHO-K1 cells, stably transfected; membranes prepared in house
Nature of the assay: Human 5-HT6 Receptor Binding Assay ([3H]LSD, scintillation beads). To be noted: membranes of CHO-K1 cells with recombinant human 5-HT6 receptor, 4 nM [3H]LSD. How it is done: Human 5-HT6 Receptor Binding Assay
Membranes were prepared from CHO-K1 cells stably transfected with the human 5-HT6 receptor (Euroscreen; ES-316-C). The cells were grown in Gibco Advanced DMEM-F12 (Cat#12634010) containing 2% dialyzed FBS (Hyclone Cat#SH30079.03). The cells were harvested in phosphate buffered saline (PBS) containing 0.1 mM EDTA and pelleted by centrifugation (1000×g), the supernatant was discarded and the pellets were stored at −80° C. prior to membrane preparation. Membranes were prepared as previously described (J Bio Chem. 1992, 267 (14) 9844-51). Briefly, frozen cell pellet was resuspended in a lysis buffer containing 5 mM Tris-HCl (pH 7.5), 5 mM EDTA and 1 complete EDTA-free protease inhibitor tablet (Roche Applied Science, Indianapolis, Ind.) per 50 mL buffer, and homogenized with a tissue homogenizer. The cell lysate was then centrifuged at 40,000×g for 30 min at 4° C. to collect the membranes. The membrane pellets were washed in membrane buffer (50 mM Tris-HCl (pH 7.5), 0.6 mM EDTA, 5 mM MgCl2, 1 complete EDTA-free protease inhibitor tablet per 50 mL buffer) using a tissue homogenizer. The membranes were centrifuged at 40,000×g for 30 min at 4° C. and the pellets were resuspended in membrane buffer containing 250 mM sucrose, and protein concentration was determined using the Coomassie Plus kit (Pierce Biotechnology, Rockford, Ill.).
Membranes prepared from cells expressing recombinant human 5-HT6 receptor (h5-HT6) were resuspended in assay buffer containing 50 mM Tris HCl, (pH7.4), 4 mM CaCl2, 10 μg/mL saponin, and 0.1% (w/v) ascorbic acid. Membranes were preincubated using 1.75 μg membrane protein and 0.25 mg FlashBlue scintillation beads (PerkinElmer catalogue #FB001) per well at 4° C. for 30 min. […] Test compounds or assay controls for total and non-specific binding were diluted in DMSO as 100× solutions and serially diluted by half log concentrations on a Perkin Elmer JANUS Automated Workstation. Serotonin (10 μM final concentration) was used to determine non-specific binding in the assay. Plates were read using the Microbeta Trilux 1450 LSC and luminescence counter. Data were analyzed by nonlinear […] using the dose-response equation (variable slope) to calculate IC50 in XLfit4 (ID Business Solutions Inc.): y=(Bottom+((Top−Bottom)/(1+((IC50/x)^Hill slope))))
Ki value was then calculated according to the Cheng-Prusoff method using the equation below (Cheng and Prusoff, 1973): Ki, app=IC50/(1+([radioligand]/Kd))

The mark [1] stands for this setting: Cheng-Prusoff, read-out: Human 5-HT6 Ki app.
[2] abbreviates: Human 5-HT6 Ki app (nM), Cheng-Prusoff.

Read-outs that look alike come from different tables or passages of the source.

T1 sequence (P50406 whole entry): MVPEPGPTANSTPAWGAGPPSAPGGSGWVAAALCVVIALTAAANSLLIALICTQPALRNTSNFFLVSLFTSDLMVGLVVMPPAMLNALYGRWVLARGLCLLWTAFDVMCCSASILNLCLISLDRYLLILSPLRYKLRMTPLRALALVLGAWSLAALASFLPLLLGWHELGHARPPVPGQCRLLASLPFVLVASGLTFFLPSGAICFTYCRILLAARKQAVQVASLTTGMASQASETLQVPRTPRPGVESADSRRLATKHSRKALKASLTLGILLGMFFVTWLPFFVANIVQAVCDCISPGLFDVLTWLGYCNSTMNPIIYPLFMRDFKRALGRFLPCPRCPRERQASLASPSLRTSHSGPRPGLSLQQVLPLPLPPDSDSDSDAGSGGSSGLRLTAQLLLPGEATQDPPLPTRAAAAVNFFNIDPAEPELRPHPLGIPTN

Turning to `O=S(=O)(c1cc(F)cc(F)c1)c1ccc2c(c1)OCC1NCCC21` (racemic) [Example 105, 7-[(3,5-difluorophenyl)sulfonyl]-1,2,3,3a,4,9b-hexahydrochromeno[3,4-b]pyrrole], the Ki under setting [1] was below 500 nM.
Turning to `Cc1cccc(Sc2ccc3c(c2)OCC2C3CCN2C2CCC2)n1` (single isomer, unassigned) [Example 82, 3-cyclobutyl-7-[(6-methylpyridin-2-yl)sulfanyl]-1,2,3,3a,4,9b-hexahydrochromeno[3,4-b]pyrrole], the Ki under setting [1] is above 1000 nM.
On the same count and under the same terms, with `O=S(=O)(c1cccc(Cl)c1)c1ccc2c(c1)OCC1NCCC21` (single isomer, unassigned) [Example 2, 7-[(3-chlorophenyl)sulfonyl]-1,2,3,3a,4,9b-hexahydrochromeno[3,4-b]pyrrole] the figure was below 500 nM.
Consider `O=S(=O)(c1cccc(F)c1)c1ccc2c(c1)OCC1NCCC21` (single isomer, unassigned) [Example 1, 7-[(3-fluorophenyl)sulfonyl]-1,2,3,3a,4,9b-hexahydrochromeno[3,4-b]pyrrole], for which the Ki under setting [1] was below 500 nM.
Consider `O=S(=O)(c1cncc(Cl)c1)c1ccc2c(c1)OCC1NCCC21` (racemic) [Example 111, 7-[(5-chloropyridin-3-yl)sulfonyl]-1,2,3,3a,4,9b-hexahydrochromeno[3,4-b]pyrrole], for which the Ki under setting [2] was below 500 nM.
Regarding `O=S(=O)(c1ccccc1)c1ccc2c(c1)OCC1C2CCN1C1CCOC1` (single isomer, unassigned) [Example 66, 7-(phenylsulfonyl)-3-(tetrahydrofuran-3-yl)-1,2,3,3a,4,9b-hexahydrochromeno[3,4-b]pyrrole], the Ki under setting [1] is above 1000 nM.
In the case of `O=S(=O)(c1ccccc1)c1ccc2c(c1)OCC1C2CCN1CCO` (single isomer, unassigned) [Example 97, 2-[7-(phenylsulfonyl)-1,3a,4,9b-tetrahydrochromeno[3,4-b]pyrrol-3(2H)-yl]ethanol], the Ki is, setting by setting: (actual data, read-out: Human 5-HT6 Ki) 221 nM; under setting [1], below 500 nM.
Regarding `O=S(=O)(c1cncc(C(F)(F)F)c1)c1ccc2c(c1)OCC1C2CCN1C1CCC1` (single isomer, unassigned) [Example 87, 3-cyclobutyl-7-{[5-(trifluoromethyl)pyridin-3-yl]sulfonyl}-1,2,3,3a,4,9b-hexahydrochromeno[3,4-b]pyrrole], the Ki under setting [1] is above 1000 nM.
As for `COc1cncc(S(=O)(=O)c2ccc3c(c2)OCC2NCCC32)c1` (single isomer, unassigned) [Example 33, 7-[(5-methoxypyridin-3-yl)sulfonyl]-1,2,3,3a,4,9b-hexahydrochromeno[3,4-b]pyrrole], the Ki under setting [2] was below 500 nM.
For `COCCN1CCC2c3ccc(S(=O)(=O)c4ccccc4)cc3OCC21` (single isomer, unassigned) [Example 99, 3-(2-methoxyethyl)-7-(phenylsulfonyl)-1,2,3,3a,4,9b-hexahydrochromeno[3,4-b]pyrrole], the Ki under setting [1] was above 1000 nM.
In the case of `O=S(=O)(c1ccccc1)c1ccc2c(c1)OCC1C2CCN1CC(F)F` (single isomer, unassigned) [Example 77, 3-(2,2-difluoroethyl)-7-(phenylsulfonyl)-1,2,3,3a,4,9b-hexahydrochromeno[3,4-b]pyrrole], the Ki under setting [1] was above 1000 nM.
Same read-out and setting: with `COc1cncc(S(=O)(=O)c2ccc3c(c2)OCC2C3CCN2C2CCC2)c1` (single isomer, unassigned) [Example 79, 3-cyclobutyl-7-[(5-methoxypyridin-3-yl)sulfonyl]-1,2,3,3a,4,9b-hexahydrochromeno[3,4-b]pyrrole] the figure was above 1000 nM; with `COc1cc(F)cc(S(=O)(=O)c2ccc3c(c2)OCC2NCCC32)c1` (single isomer, unassigned) [Example 44, 7-[(3-fluoro-5-methoxyphenyl)sulfonyl]-1,2,3,3a,4,9b-hexahydrochromeno[3,4-b]pyrrole], below 500 nM; with `CN(C)C(=O)c1cccc(S(=O)(=O)c2ccc3c(c2)OC[C@@H]2NCC[C@H]32)c1` (single isomer, unassigned) [Example 46], below 500 nM.
Regarding `O=S(=O)(c1ccccc1)c1ccc2c(c1)OCC1C2CCN1CCO` (single isomer, unassigned) [Example 90, 2-[7-(Phenylsulfonyl)-1,3a,4,9b-tetrahydrochromeno[3,4-b]pyrrol-3(2H)-yl]ethanol], the Ki under setting [1] was below 500 nM.
Same read-out and setting: then `O=S(=O)(c1cc(F)cc(F)c1)c1ccc2c(c1)OCC1NCCC21` (single isomer, unassigned) [Example 14, 7-[(3,5-difluorophenyl)sulfonyl]-1,2,3,3a,4,9b-hexahydrochromeno[3,4-b]pyrrole], with below 500 nM.
Turning to `O=S(=O)(c1cc(Cl)cc(Cl)c1)c1ccc2c(c1)OCC1NCCC21` (single isomer, unassigned) [Example 12, 7-[(3,5-dichlorophenyl)sulfonyl]-1,2,3,3a,4,9b-hexahydrochromeno[3,4-b]pyrrole], the Ki under setting [1] was below 500 nM.
On the same count and under the same terms, with `O=S(=O)(c1ccccc1)c1ccc2c(c1)OCC1C2CCN1C1CCCC1` (single isomer, unassigned) [Example 62, 3-cyclopentyl-7-(phenylsulfonyl)-1,2,3,3a,4,9b-hexahydrochromeno[3,4-b]pyrrole] the figure was above 1000 nM.
As to `O=S(=O)(c1cncc(Br)c1)c1ccc2c(c1)OCC1NCCC21` (single isomer, unassigned) [Example 28, 7-[(5-bromopyridin-3-yl)sulfonyl]-1,2,3,3a,4,9b-hexahydrochromeno[3,4-b]pyrrole], the Ki under setting [2] is below 500 nM.
Consider `Cc1cccc(S(=O)(=O)c2ccc3c(c2)OCC2NCCC32)n1` (single isomer, unassigned) [Example 23, 7-[(6-methylpyridin-2-yl)sulfonyl]-1,2,3,3a,4,9b-hexahydrochromeno[3,4-b]pyrrole], for which the Ki under setting [2] was below 500 nM.
As to `O=S(=O)(c1ccccc1)c1ccc2c(c1)OCC1C2CCN1C1CCC1` (single isomer, unassigned) [Example 59, 3-cyclobutyl-7-(phenylsulfonyl)-1,2,3,3a,4,9b-hexahydrochromeno[3,4-b]pyrrole], under setting [1], the Ki lay within 500 to 1000 nM.
In the case of `O=S(=O)(c1ccccc1)c1ccc2c(c1)OCC1C2CCN1CC1CC1` (single isomer, unassigned) [Example 72, 3-(cyclopropylmethyl)-7-(phenylsulfonyl)-1,2,3,3a,4,9b-hexahydrochromeno[3,4-b]pyrrole], the Ki under setting [1] is above 1000 nM.
Same read-out and setting: with `COCCN1CCC2c3ccc(S(=O)(=O)c4ccccc4)cc3OCC21` (single isomer, unassigned) [Example 92, 3-(2-methoxyethyl)-7-(phenylsulfonyl)-1,2,3,3a,4,9b-hexahydrochromeno[3,4-b]pyrrole] the figure was below 500 nM; with `CCOc1cc(F)cc(S(=O)(=O)c2ccc3c(c2)OCC2NCCC32)c1` (single isomer, unassigned) [Example 40, 7-[(3-ethoxy-5-fluorophenyl)sulfonyl]-1,2,3,3a,4,9b-hexahydrochromeno[3,4-b]pyrrole], below 500 nM; with `CC(C)CN1CCC2c3ccc(S(=O)(=O)c4ccccc4)cc3OCC21` (single isomer, unassigned) [Example 91, 3-(2-methylpropyl)-7-(phenylsulfonyl)-1,2,3,3a,4,9b-hexahydrochromeno[3,4-b]pyrrole], below 500 nM.
As to `O=S(=O)(c1cncc(Cl)c1)c1ccc2c(c1)OCC1NCCC21` (single isomer, unassigned) [Example 30, 7-[(5-chloropyridin-3-yl)sulfonyl]-1,2,3,3a,4,9b-hexahydrochromeno[3,4-b]pyrrole], the Ki under setting [2] is below 500 nM.
Turning to `COc1cncc(S(=O)(=O)c2ccc3c(c2)OCC2C3CCN2C2CCC2)c1` (single isomer, unassigned) [Example 74, 3-cyclobutyl-7-[(5-methoxypyridin-3-yl)sulfonyl]-1,2,3,3a,4,9b-hexahydrochromeno[3,4-b]pyrrole], the Ki under setting [1] was above 1000 nM.
The same measure, in the same setting: with `O=S(=O)(c1cncc(Cl)c1)c1ccc2c(c1)OCC1C2CCN1C1CCC1` (single isomer, unassigned) [Example 81, 7-[(5-chloropyridin-3-yl)sulfonyl]-3-cyclobutyl-1,2,3,3a,4,9b-hexahydrochromeno[3,4-b]pyrrole] the figure was above 1000 nM.
